The target in one assay is T1, MGLL (Mus musculus, UniProt O35678).
T1 construct: Brain; from tissue; host or cells: mouse brain proteome
T1 sequence (O35678 1-303): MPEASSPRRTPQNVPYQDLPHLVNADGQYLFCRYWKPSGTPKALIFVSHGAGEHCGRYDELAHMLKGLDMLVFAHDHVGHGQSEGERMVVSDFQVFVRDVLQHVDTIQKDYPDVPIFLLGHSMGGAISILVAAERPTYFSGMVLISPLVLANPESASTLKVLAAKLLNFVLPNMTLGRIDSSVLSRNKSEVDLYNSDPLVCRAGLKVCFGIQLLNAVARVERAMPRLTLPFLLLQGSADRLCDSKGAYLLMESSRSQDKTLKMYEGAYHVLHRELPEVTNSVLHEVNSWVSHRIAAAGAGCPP
The experiment in a line: In vitro competitive activity-based protein profiling, mouse brain proteome (MGLL). It counts as biochemical. The conditions noted are these: concentration not given (μM).

For another assay, the target named is T2, ABHD6 (Mus musculus, UniProt Q8R2Y0).
T2 construct: Brain; from tissue; host or cells: mouse brain proteome
T2 sequence (Q8R2Y0 1-336): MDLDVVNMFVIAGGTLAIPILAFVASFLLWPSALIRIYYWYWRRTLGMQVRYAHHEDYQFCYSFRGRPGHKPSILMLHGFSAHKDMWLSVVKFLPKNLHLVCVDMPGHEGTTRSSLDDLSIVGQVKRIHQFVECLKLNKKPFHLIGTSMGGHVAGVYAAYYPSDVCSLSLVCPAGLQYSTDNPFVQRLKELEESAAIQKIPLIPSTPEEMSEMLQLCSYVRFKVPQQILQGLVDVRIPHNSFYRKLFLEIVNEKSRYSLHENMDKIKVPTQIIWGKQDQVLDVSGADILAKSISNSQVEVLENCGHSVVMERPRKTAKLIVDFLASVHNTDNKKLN
Kind of assay: In vitro competitive activity-based protein profiling, mouse brain proteome (ABHD6). It counts as biochemical. The conditions noted are these: mouse brain proteome; concentration not given (μM). As to the method: [The source words this procedure for another target and reports this target under the same test.] In Vitro Competitive Activity-Based Protein Profiling.
Proteomes (human prefrontal cortex or cell membrane fractions) (50 μL, 1.0 mg/mL total protein concentration) were preincubated with varying concentrations of inhibitors at 37° C. After 30 min, FP-Rh or HT-01 (1.0 μL, 50 μM in DMSO) was added and the mixture was incubated for another 30 min at room temperature. Reactions were quenched with SDS loading buffer (15 μL-4×) and run on SDS-PAGE.

Molecules are shown by their SMILES.

Experimental findings from patent US11161856B2 (H. Lundbeck A/S, priority 2017, dated 2021) are described below.

For `O=C(OC(C(F)(F)F)C(F)(F)F)N1CCC2(CCN(Cc3ccc(C(F)(F)F)cc3N3CC4CCC(C3)O4)CC2)C1` [Example 190, 1,1,1,3,3,3-Hexafluoropropan-2-yl 8-(2-(8-oxa-3-azabicyclo[3.2.1]octan-3-yl)-4-(trifluoromethyl)benzyl)-2,8-diazaspiro[4.5]decane-2-carboxylate], on MGLL, the “% Inh MGLL Brain (Mouse, μM)” value is listed as “### (### is ≥75%)”. For the same compound, the “% Inh ABHD6 Brain (Mouse, μM)” value on ABHD6 is recorded as “# (# is ≤25%)”.
The matching figures for `O=C(OC(C(F)(F)F)C(F)(F)F)N1CCC2(CCN(Cc3ccc(Cl)cc3N3CCCCC3)CC2)C1` [Example 191, 1,1,1,3,3,3-Hexafluoropropan-2-yl 8-(4-chloro-2-(piperidin-1-yl)benzyl)-2,8-diazaspiro[4.5]decane-2-carboxylate]: “### (### is ≥75%)” and “# (# is ≤25%)”.
The matching figures for `O=C(OC(C(F)(F)F)C(F)(F)F)N1CCC2(CCN(Cc3ccc(C(F)(F)F)cc3N3CCC(F)CC3)CC2)C1` [Example 192, 1,1,1,3,3,3-Hexafluoropropan-2-yl 8-(2-(4-fluoropiperidin-1-yl)-4-(trifluoromethyl)benzyl)-2,8-diazaspiro[4.5]decane-2-carboxylate]: “### (### is ≥75%)” and “# (# is ≤25%)”.
As for `CC(=O)N1CCCc2cccc(CN3CCC4(CC3)CCN(C(=O)OC(C(F)(F)F)C(F)(F)F)C4)c21` [Example 193, 1,1,1,3,3,3-Hexafluoropropan-2-yl 8-((1-acetyl-1,2,3,4-tetrahydroquinolin-8-yl)methyl)-2,8-diazaspiro[4.5]decane-2-carboxylate], the “% Inh MGLL Brain (Mouse, μM)” value on MGLL is “## (## is between 25 and 75%)”. Besides, the “% Inh ABHD6 Brain (Mouse, μM)” value on ABHD6 is on record as “# (# is ≤25%)”.
As to `O=C(O)C1CCN(c2cc(Cl)ccc2CN2CCC3(CC2)CCN(C(=O)OC(C(F)(F)F)C(F)(F)F)C3)CC1` [Example 194, l-(5-Chloro-2-((2-(((1.1,1,3,3,3-hexafluoropropan-2-yl)oxy)carbonyl)-2,8-diazaspiro[4.5]decan-8-yl)methyl)phenyI)piperidine-4-carboxylic acid], the “% Inh MGLL Brain (Mouse, μM)” value on MGLL was “### (### is ≥75%)”. The “% Inh ABHD6 Brain (Mouse, μM)” value at ABHD6 was “# (# is ≤25%)”.
The matching figures for `O=C(O)C1CCN(c2cc(C(F)(F)F)ccc2CN2CCC3(CC2)CCN(C(=O)OC(C(F)(F)F)C(F)(F)F)C3)CC1` [Example 195, l-(2-((2-(((l,1,1,3,3,3-Hexafluoropropan-2-yl)oxy)carbonyl)-2,8-diazaspino[4.5]decan-8-yl)melhyl)-5-(trifluoromethyl)phenyl)piperidine-4-carboxylic acid]: “### (### is ≥75%)” and “# (# is ≤25%)”.
Taken in the same sequence, the figures for `CS(=O)(=O)N1CCC2(CCN(c3cc(C(F)(F)F)ccc3CN3CCN(C(=O)OC(C(F)(F)F)C(F)(F)F)CC3)C2)CC1` [Example 196, 1,1,1,3,3,3-Hexafluoropropan-2-yl 4-(2-(8-(methylsulfonyl)-2,8-diazaspiro[4.5]decan-2-yl)-4-(trifluoromcthyl)benzyl)pipera zinc-1-carboxylate] were “### (### is ≥75%)” and “# (# is ≤25%)”.
The matching figures for `CC(=O)N1CCC2(CC1)CCN(c1cc(C(F)(F)F)ccc1CN1CCN(C(=O)OC(C(F)(F)F)C(F)(F)F)CC1)C2` [Example 197, 1.1.1,3,3.3-Hexafluoropropan-2-yl 4-(2-(8-acetyl-2,8-diazaspiro[4.5]decan-2-yl)-4-(trifluoromethyl)benzyl)pipera zine-l-carboxylate]: “### (### is ≥75%)” and “# (# is ≤25%)”.
On to `CC(=O)N1CCC2(CC1)CN(c1cc(Cl)ccc1CN1CCN(C(=O)OC(C(F)(F)F)C(F)(F)F)CC1)C2` [Example 198, 1.1.1,3,3,3-Hexafluoropropan-2-yl 4-(2-(7-acetyl-2,7-diazaspiro[3.5]nonan-2-yl)-4-chlorobenzyl)piperazine-1-carboxylate], for which, at MGLL, the “% Inh MGLL Brain (Mouse, μM)” value was “### (### is ≥75%)”. Besides, at ABHD6, the “% Inh ABHD6 Brain (Mouse, μM)” value is reported as “# (# is ≤25%)”.
Taken in the same sequence, the figures for `CC(=O)N1CCC2(CC1)CN(c1cc(C(F)(F)F)ccc1CN1CCN(C(=O)OC(C(F)(F)F)C(F)(F)F)CC1)C2` [Example 199, 1.1,1.3.3,3-Hexafluoropropan-2-yl 4-(2-(7-acetyl-2,7-diazaspiro[3.5]nonan-2-yl)-4-(trifluoromethyl)benzyl)pipera zine-l-carboxylate] were “### (### is ≥75%)” and “# (# is ≤25%)”.
Taken in the same sequence, the figures for `CC(=O)N1CC2CN(c3cc(C(F)(F)F)ccc3CN3CCN(C(=O)OC(C(F)(F)F)C(F)(F)F)CC3)CC2C1` (stereo not drawn) [Example 200, 1,1,1,3,3,3-Hexafluoropropan-2-yl 4-(2-(5-acetylhexahydropyrrolo[3,4-c]pyrrol-2(lH)-yl)-4-(trifluoromethyl)benzyl)pipera zine-l-carboxylate] were “### (### is ≥75%)” and “# (# is ≤25%)”.
Consider `CS(=O)(=O)N1CC2CN(c3cc(C(F)(F)F)ccc3CN3CCN(C(=O)OC(C(F)(F)F)C(F)(F)F)CC3)CC2C1` (centres unmarked) [Example 201, 1,1,1,3,3,3-Hexafluoropropan-2-yl 4-(2-(5-(methylsulfonyl)hexahydropyrrolo[3,4-c]pyrrol-2(lH)-yl)-4-(tnfluoromethyl)benzyl)pipera zinc-1-carboxylate], for which the “% Inh MGLL Brain (Mouse, μM)” value on MGLL is listed as “### (### is ≥75%)”. Moreover, the “% Inh ABHD6 Brain (Mouse, μM)” value on ABHD6 is “## (## is between 25 and 75%)”.
For `CC(=O)N1CC2CN(c3cc(Cl)ccc3CN3CCN(C(=O)OC(C(F)(F)F)C(F)(F)F)CC3)CC2C1` (centres unmarked) [Example 202, 1,1,1,3,3,3-Hexafluoropropan-2-yl 4-(2-(5-acetylhexahydropyrrolo[3,4-c]pyrrol-2(lH)-yl)-4-chlorobenzyl)piperazine-1 - carboxylate], at MGLL, the “% Inh MGLL Brain (Mouse, μM)” value is listed as “### (### is ≥75%)”. Further, on ABHD6, the “% Inh ABHD6 Brain (Mouse, μM)” value is “## (## is between 25 and 75%)”.
With `CS(=O)(=O)N1CC2CN(c3cc(Cl)ccc3CN3CCN(C(=O)OC(C(F)(F)F)C(F)(F)F)CC3)CC2C1` (centres unmarked) [Example 203, 1,1,1,3,3,3-Hexafluoropropan-2-yl 4-(4-chloro-2-(5-(methylsulfonyl)hexahydropyrrolo[3,4-c]pyrrol-2(lH)-yl)benzyl)piperazine-l - carboxylate], the “% Inh MGLL Brain (Mouse, μM)” value at MGLL is “### (### is ≥75%)”. Moreover, the “% Inh ABHD6 Brain (Mouse, μM)” value on ABHD6 was “### (### is ≥75%)”.
As to `CC(=O)N1CCCC12CCN(c1cc(Cl)ccc1CN1CCN(C(=O)OC(C(F)(F)F)C(F)(F)F)CC1)CC2` [Example 204, 1,1,1,3,3,3-Hexafluoropropan-2-yl 4-(2-(1-acetyl-1,8-diazaspiro[4.5]decan-8-yl)-4-chlorobenzyl)piperazine-l-carboxylate], at MGLL, the “% Inh MGLL Brain (Mouse, μM)” value is “### (### is ≥75%)”. Further, on ABHD6, the “% Inh ABHD6 Brain (Mouse, μM)” value is listed as “# (# is ≤25%)”.
`CS(=O)(=O)N1CCCC12CCN(c1cc(Cl)ccc1CN1CCN(C(=O)OC(C(F)(F)F)C(F)(F)F)CC1)CC2` [Example 205, 1,1,1,3,3,3-Hexafluoropropan-2-yl 4-(4-chloro-2-(l-(methylsulfonyl)-1,8-diazaspiro[4.5]decan-8-yl)benzyl)piperazine-l-carboxylate]: the “% Inh MGLL Brain (Mouse, μM)” value on MGLL was “### (### is ≥75%)”. Moreover, on ABHD6, the “% Inh ABHD6 Brain (Mouse, μM)” value is “## (## is between 25 and 75%)”.
As to `CN1CC2CN(c3cc(Cl)ccc3CN3CCN(C(=O)OC(C(F)(F)F)C(F)(F)F)CC3)CC2C1` (centres unmarked) [Example 206, 1,1,1,3,3,3-Hexafluoropropan-2-yl 4-(4-chloro-2-(5-methylhexahydropyrrolo[3,4-c]pyrrol-2(1H)-yl)benzyl)piperazine-1-carboxylate], the “% Inh MGLL Brain (Mouse, μM)” value at MGLL is recorded as “### (### is ≥75%)”. Also, the “% Inh ABHD6 Brain (Mouse, μM)” value on ABHD6 was “# (# is ≤25%)”.
The matching figures for `CC(=O)N1CCCC12CCN(c1cc(C(F)(F)F)ccc1CN1CCN(C(=O)OC(C(F)(F)F)C(F)(F)F)CC1)CC2` [Example 208, 1,1,1,3,3,3-Hexafluoropropan-2-yl 4-(2-(1-acetyl-1,8-diazaspiro[4.5]decan-8-yl)-4-(trifluoromethyl)benzyl) piperazine-1-carboxylate]: “### (### is ≥75%)” and “# (# is ≤25%)”.
The matching figures for `CS(=O)(=O)N1CCCC12CCN(c1cc(C(F)(F)F)ccc1CN1CCN(C(=O)OC(C(F)(F)F)C(F)(F)F)CC1)CC2` [Example 209, 1,1,1,3,3,3-Hexafluoropiopan-2-yl 4-(2-(1-(methylsulfonyl)-1.8-diazaspiro[4.5]decan-8-yl)-4-(trifluoromethyl)benzyl) piperazine-1-carboxylate]: “### (### is ≥75%)” and “# (# is ≤25%)”.
